PubChem BioAssay (NCI)
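Step 1: Grow cells in 96-well plates. Step 2: Expose to compound for 48 hours at 5 concentrations. Step 3: Interpolate endpoints linearly; if unreached, use highest concentration. TGI denotes the concentration required for complete inhibition of growth.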 Peptide text beside a SMILES is read from it. * marks the point of attachment. X26 = Clc1c(Cl)c(Cl)c(O*)c(Cl)c1Cl; Boc = CC(C)(C)OC(=O)*; OBn = c1ccc(CO*)cc1; Bn = c1ccc(C*)cc1

Experiments:
Experiment in all cases: NCI anticancer screen, dose series, 48 h
NCI-H522 lung = system: NCI-H522 lung
HCT-116 colon = system: HCT-116 colon
IGROV1 ovarian = system: IGROV1 ovarian
SW-620 colon = system: SW-620 colon
EKVX NSCLC = system: EKVX NSCLC
OVCAR-8 ovarian = system: OVCAR-8 ovarian
OVCAR-5 ovarian = system: OVCAR-5 ovarian
OVCAR-3 ovarian = system: OVCAR-3 ovarian
MOLT-4 leukemia = system: MOLT-4 leukemia

Row | SMILES | TGI (NCI-H522 lung) | TGI (HCT-116 colon) | TGI (IGROV1 ovarian) | TGI (SW-620 colon) | TGI (EKVX NSCLC) | TGI (OVCAR-8 ovarian) | TGI (OVCAR-5 ovarian) | TGI (OVCAR-3 ovarian) | TGI (MOLT-4 leukemia)
1 | O=C1CC(c2ccccc2Cl)C2(C(=O)NC(=O)NC2=O)C(c2ccccc2Cl)C1 (stereo unspecified) | > 100 µM | > 100 µM | 95.9 µM | > 100 µM | > 100 µM | > 100 µM | > 100 µM | > 100 µM | > 100 µM
2 | Cc1ccc2c(c1C)CC1(Cc3c(C)ccc(C)c3C1=O)C2=O (stereo unspecified) | > 100 µM | > 100 µM | > 100 µM | > 100 µM | > 100 µM | > 100 µM | > 100 µM |  | > 100 µM
3 | COc1ccc(OC/C(N=Cc2ccncc2)=N/NC(=O)c2ccncc2)cc1 | > 100 µM | > 100 µM | > 100 µM | > 100 µM | > 100 µM | > 100 µM | > 100 µM | > 100 µM | > 100 µM
4 | CN(C)CCNc1c([N+](=O)[O-])sc2ccc(Cl)cc12 | 87.4 µM |  | > 100 µM | > 100 µM | > 100 µM | > 100 µM | > 100 µM | > 100 µM | 7.73 µM
5 | CC1CCc2sc3nc4n(c(=O)c3c2C1)CC(C)S4 (stereo unspecified) | > 100 µM | 67.7 µM | > 100 µM | > 100 µM | 70.4 µM | > 100 µM | 92.7 µM | 36.7 µM | 
6 | Cc1cc(OCc2nnc3sc(NC(=O)c4ccccc4)nn23)ccc1Cl | 61 µM | > 100 µM | 68 µM | > 100 µM | 89.7 µM | 47.1 µM | > 100 µM | > 100 µM | > 100 µM
7 | O=c1ccn(-c2ccccn2)c(=O)n1-c1ccccn1 | > 100 µM | > 100 µM | > 100 µM | > 100 µM | > 100 µM | > 100 µM | > 100 µM | > 100 µM | > 100 µM
8 | Cc1cccc(NS(=O)(=O)c2ccc(N=Nc3c(O)c(C(=O)O)cc4ccccc34)cc2)n1 | > 100 µM | > 100 µM | > 100 µM | > 100 µM | > 100 µM | > 100 µM | > 100 µM | > 100 µM | > 100 µM
9 | NCCN(CCN(C(=O)Nc1ccccc1)c1ccccc1)C(=O)Nc1ccccc1 | 41.1 µM | 33.5 µM | 36.7 µM | 48.3 µM | 67.3 µM | 52.2 µM | 45.6 µM |  | > 100 µM
10 | Clc1ccc(OCc2nnc(COc3ccc(OCc4nnc(COc5ccc(Cl)cc5Cl)o4)c(Cl)c3)o2)c(Cl)c1 | 38 µM | > 100 µM | 38.1 µM | > 100 µM | 45.2 µM | > 100 µM | > 100 µM | 61.7 µM | 
11 | NCCCCNCCCNC(=O)CNC(=O)CC(O)C(N)CCCC(NC(=O)C(CN)NC(=O)C(O)CNC(=O)CC(N)c1ccc(O)cc1)C(=O)O (stereo unspecified) | > 10 µM | > 10 µM | > 10 µM |  | > 10 µM | > 10 µM | > 10 µM | > 10 µM | > 10 µM
12 | N#Cc1nc(C2CCC(=O)O2)oc1N (stereo unspecified) |  | > 100 µM | > 100 µM | > 100 µM | > 100 µM | > 100 µM | > 100 µM | > 100 µM | > 100 µM
13 | CC(C)CC(NC(=O)C(CCC(=O)OCc1ccccc1)NC(=O)OC(C)(C)C)C(=O)NC(COCc1ccccc1)C(=O)NC(Cc1ccccc1)C(=O)Oc1c(Cl)c(Cl)c(Cl)c(Cl)c1Cl (stereo unspecified) (Boc-E(OBn)LS(Bn)F-X26; configuration not given here) | 51.4 µM | 31.6 µM | 56.3 µM | > 100 µM | 96.2 µM | 65.5 µM | 56.7 µM |  | 54.1 µM
14 | Cc1ccc(C(=O)Cc2nc3c([nH]c2=O)c(C)nn3-c2ccccc2)c(C)c1 | > 10 µM | > 10 µM | > 10 µM | > 10 µM |  | > 10 µM |  | 8.94 µM | > 10 µM
15 | CCN(CC)c1ccc(NC(=S)NN(C)C)cc1 | > 10 µM | > 10 µM | > 10 µM | > 10 µM | > 10 µM | > 10 µM |  | > 10 µM | > 10 µM
16 | CC(C)=CCC12Cc3ccc(O)cc3C(C(C)CN1)C2C (stereo unspecified) |  | > 100 µM | > 100 µM | > 100 µM | > 100 µM | > 100 µM | > 100 µM |  | > 100 µM
17 | O=[N+]([O-])/C(Cl)=C(/C(Cl)=C(Cl)Cl)N1CCCCC1 | 23.2 µM | 18.9 µM | 23.4 µM |  | 39.7 µM | 22.2 µM | 29.2 µM | 22.8 µM | 11.7 µM
18 | O=c1[nH]c(=O)n(C2CC(O)C(CO)O2)cc1OC/C=C/Cc1ccccc1 (stereo unspecified) | > 100 µM | > 100 µM | > 100 µM |  | > 100 µM | > 100 µM | > 100 µM | > 100 µM | > 100 µM
19 | Cc1cnc2[nH]c(-c3cccc(F)c3)cc(=O)c2c1 | 0.108 µM |  | > 100 µM |  | > 100 µM | 1.5 µM | > 100 µM | 0.0373 µM | > 100 µM
20 | COc1cccc(N2C(=O)CS(=O)(=O)C2c2cccc(Oc3ccccc3)c2)c1 (stereo unspecified) | 37.6 µM | 24.7 µM |  | > 100 µM | 59.3 µM | 77.2 µM | > 100 µM | > 100 µM | 57.6 µM
21 | CCOc1snc(C(Cl)(Cl)Cl)c1Cl |  | 89.2 µM | > 100 µM | > 100 µM | 79.4 µM | 94.4 µM | > 100 µM | 37.8 µM | 38 µM
22 | C[C@H](c1ccccc1)N1C(=O)[C@@H](OCc2ccccc2)[C@H]1[C@H](COC(=O)COCc1ccccc1)OCc1ccccc1 | > 100 µM | > 100 µM | > 100 µM | > 100 µM | > 100 µM |  | > 100 µM | > 100 µM | > 100 µM
23 | Cc1cn(CCCCCOC(=O)NC(CCCNC(N)=O)C(=O)O)c(=O)[nH]c1=O (stereo unspecified) |  | > 100 µM | > 100 µM | > 100 µM | > 100 µM | > 100 µM | > 100 µM | > 100 µM | > 100 µM
